The record followed here is patent publication US6165998A, “Antifungal agents” (Scriptgen Pharmaceuticals, Inc., priority 1998, dated 2000).

Each structure is given as a SMILES string. ≈ marks a conversion by molar mass, not a printed value. Entries after “also recorded” stand apart in the source; their conditions may differ. Read-outs that look alike come from different tables or passages of the source.

For data set [1], the system named is C. albicans. Put plainly: Frequency of resistance study, C. albicans. Particulars: selective concentrations 1× to 10× the MIC. The data set is classed as cell-based, Candida albicans. The protocol:
A frequency of resistance study is conducted for Compound 1 using C. albicans and S. cerevisiae, with amphotericin B as the comparator. Selective concentrations of each compound between 1× and 10× the MIC are used for each compound.

A further data set has as its system Fusarium culmorum. The data set is described as follows: MIC against plant pathogen. The data set is classed as cell-based.
The target of data set [2] is T1, C. albicans RNA polymerase II (Candida albicans, UniProt A0A1D8PUA6+Q5A8Y5).
T1 construct: RNA elongation assay on calf thymus DNA
The data set is described as follows: biochemical. Particulars: for IC50: Table 1, read-out: IC50 Candida pol II. The protocol: (§1) The following procedure is used for cell-free high-throughput screening. A Tomtec Quadra 96-well pipetting station is used to add the reaction components to polypropylene 96-well dishes. 5 μl aliquots of test compounds dissolved in DMSO (or DMSO alone as a control) are added to wells. This is followed by 20 μl of the RNA polymerase II mixture, which consists of: 10 mM DTT, 200 mM KCl, 10 mM Mn^+2, 1.5 μM bovine serum albumin, and 0.25 μg reconstituted RNA polymerase. After allowing the test compound to interact with the RNA polymerase, 25 μl of the DNA/NTP mixture is added, containing: 1 μg calf thymus DNA, 4 μM [α-^32 P]-UTP, and 400 μM each CTP, ATP, and GTP.
(§2) After incubation for 60 min at 30 C, the reaction is stopped by addition of 50 μl 15% trichloroacetic acid (TCA). The TCA-precipitated RNA is adsorbed onto double-thick glass fiber filtermats using a Tomtec cell harvester. The wells of the microtiter plate and the filter are washed twice with 5% TCA and bound radioactivity is determined using a Wallac microbeta 1450 scintillation counter.
(§3) Inhibitory activity due to the test compound is calculated according to the formula: [formula] where cpmpositive control represents the average of the cpm in wells that received DMSO alone, and cpmsample represents the cpm in the well that received test compound. Compounds that cause at least 50% inhibition are scored as positive "hits" in this assay.
(§4) DNA-directed RNA polymerase II from Candida albicans was purified in sufficient quantity to support high throughput screening of large synthetic chemical and natural product libraries. A biochemical mechanism-based screen for detecting inhibitors of Pol II was developed and implemented. The screen is outlined in FIGS. 4A and 4B.

Another data set deals with S. cerevisiae. Put plainly: Time course of fungicidal activity, S. cerevisiae. The data set is classed as cell-based, Saccharomyces cerevisiae. The text has this:
(§5) Compound 1 is rapidly fungicidal.

The test system of data set [3] is systemic Candida infection. The data set is described as follows: Murine model for systemic candidiasis. The data set is classed as in vivo, mouse. The protocol: (§6) In addition, Compound 1 was efficacious in a murine model for systemic candidiasis (FIG. 10). It prolonged mean and median survival times of treated mice in the dosage range of 5 mg/kg/d to 100 mg/kg/d on aq.d., d2-11 schedule. […] The efficacy of Compound 1 was confirmed in a separate experiment using amphotericin as a control (FIG. 11). Compound 1 was also efficacious when administered orally to mice with an established systemic Candida infection (FIG. 12). […] Compound 1 is also effective against systemic candidiasis caused by a strain of C. albicans resistant to fluconazole (FIG. 13). Additional animal testing will include acute toxicity determination, route and schedule dependency in standard efficacy models, efficacy testing in immunosuppressed Candida infected mice, efficacy in an Aspergillus infection model, and pharmacokinetics following IV and oral dosing.
(§7) Compound 6 was evaluated for antifungal efficacy in a systemic candidiasis model in immunocompetent mice (FIG. 18). The compound was administered IP on a q.d., d2-11 schedule. […] 90% long term survival was seen formice treated with Compound 6 at 200/mg/kg. 30% of mice survived when treated with Compound 6 at 100 mg/kg/d. Compound 6 was also effective against systemic candidiasis when administered orally (FIG. 19) and it was effective in treating infections caused by fluconazole-resistant C. albicans.

Data set [4] can be described thus: Safety assessment on target panel. The protocol:
(§8) A safety assessment of Compound 1 was conducted. The compound was negative for effects in a number of CNS, cardiovascular, intermediary metabolism, allergy/inflammation and gastrointestinal targets. The compound was nontoxic when administered orally at 300 mg/kg.

Data set [5] can be described thus: Safety assessment, oral toxicity. The data set is classed as in vivo. The following applies: orally at 300 mg/kg. Here is the method: as §8
The test system of a further data set is fungal pathogens. The data set is described as follows: In vitro antifungal activity (MIC). The data set is classed as cell-based.
A further data set concerns monkey kidney cells. The data set is described as follows: Toxicity against monkey kidney cells. The data set is classed as cell-based.
For data set [6], the system named is Candida strains resistance to ketoconazole or to amphotericin B. The data set is described as follows: Antifungal activity against resistant Candida strains. The data set is classed as cell-based.
Data set [7] is described as follows: Compound-related toxicity in treated mice. The data set is classed as in vivo, mouse. Here is the method:
as §6, §7

Data set [8] has as its system Trichophyton mentagrophytes. Put plainly: Activity against human dermatophytic fungi. The data set is classed as cell-based.
In data set [9] the test system is C. albicans. Put plainly: Time course of fungicidal activity, C. albicans. The data set is classed as cell-based, Candida albicans.
Text: as §5

For data set [10], the system named is C. albicans resistant to fluconazole. The data set is described as follows: Systemic candidiasis caused by fluconazole-resistant C. albicans. Particulars: mouse, in vivo. The protocol: as §6, §7
Another data set deals with T2, human Pol II (Homo sapiens, UniProt P24928+P30876).
T2 construct: Pol II was isolated from Aspergillus nidulans, Saccharomyces cerevisiae, and human cells; endogenous in cells; enzyme isolated from them
The data set is described as follows: RNA polymerase II counterscreen, human pol II. The data set is classed as biochemical. The protocol: Pol II was isolated from Aspergillus nidulans, Saccharomyces cerevisiae, and human cells (FIG. 5) and used in secondary screens for fungal spectrum and specificity. Pol I and Pol III were isolated from Candida albicans and used as an additional mechanism to study specificity. Confirmed hits form the primary assay and were evaluated against this panel of polymerases. Agents with activity against Pol II from multiple fungal enzymes but not against the human counterpart were evaluated in vitro against fungal pathogens.
(The purpose of a counterscreen is to sort out artefacts and off-target activity.)

The test system of data set [11] is C. albicans RNA polymerase II. Put plainly: biochemical. The protocol:
as §1, §2, §3, §4

In a further data set the test system is wild type C. tropicalis. The data set is described as follows: MIC alone and with sub-MIC amphotericin B, C. tropicalis. The data set is classed as cell-based, Candida tropicalis. The source says:
(§9) This synergy was not seen in an amphotericin-resistant strain. Subsequent experiments in a 2-way titration format confirmed the synergistic activity of the combination (FIG. 18). The synergy noted between these two agents was unique among the tested antifungal compounds, and was not noted for other promising compounds identified in the high throughput screen.

Data set [12] relates to amphotericin-resistant strain. The data set is described as follows: Synergy with amphotericin B in amphotericin-resistant strain. The data set is classed as cell-based.
Text: as §9

For data set [13], the system named is C. albicans. Put plainly: MIC alone and with sub-MIC amphotericin B, C. albicans. The data set is classed as cell-based, Candida albicans.
Text: as §9

Setting [14] is: Table 1, antifungal activity, read-out: MIC.
[15] abbreviates: listed as stilbene isostere of Compound 1.

T1 sequence (A0A1D8PUA6 1-1728): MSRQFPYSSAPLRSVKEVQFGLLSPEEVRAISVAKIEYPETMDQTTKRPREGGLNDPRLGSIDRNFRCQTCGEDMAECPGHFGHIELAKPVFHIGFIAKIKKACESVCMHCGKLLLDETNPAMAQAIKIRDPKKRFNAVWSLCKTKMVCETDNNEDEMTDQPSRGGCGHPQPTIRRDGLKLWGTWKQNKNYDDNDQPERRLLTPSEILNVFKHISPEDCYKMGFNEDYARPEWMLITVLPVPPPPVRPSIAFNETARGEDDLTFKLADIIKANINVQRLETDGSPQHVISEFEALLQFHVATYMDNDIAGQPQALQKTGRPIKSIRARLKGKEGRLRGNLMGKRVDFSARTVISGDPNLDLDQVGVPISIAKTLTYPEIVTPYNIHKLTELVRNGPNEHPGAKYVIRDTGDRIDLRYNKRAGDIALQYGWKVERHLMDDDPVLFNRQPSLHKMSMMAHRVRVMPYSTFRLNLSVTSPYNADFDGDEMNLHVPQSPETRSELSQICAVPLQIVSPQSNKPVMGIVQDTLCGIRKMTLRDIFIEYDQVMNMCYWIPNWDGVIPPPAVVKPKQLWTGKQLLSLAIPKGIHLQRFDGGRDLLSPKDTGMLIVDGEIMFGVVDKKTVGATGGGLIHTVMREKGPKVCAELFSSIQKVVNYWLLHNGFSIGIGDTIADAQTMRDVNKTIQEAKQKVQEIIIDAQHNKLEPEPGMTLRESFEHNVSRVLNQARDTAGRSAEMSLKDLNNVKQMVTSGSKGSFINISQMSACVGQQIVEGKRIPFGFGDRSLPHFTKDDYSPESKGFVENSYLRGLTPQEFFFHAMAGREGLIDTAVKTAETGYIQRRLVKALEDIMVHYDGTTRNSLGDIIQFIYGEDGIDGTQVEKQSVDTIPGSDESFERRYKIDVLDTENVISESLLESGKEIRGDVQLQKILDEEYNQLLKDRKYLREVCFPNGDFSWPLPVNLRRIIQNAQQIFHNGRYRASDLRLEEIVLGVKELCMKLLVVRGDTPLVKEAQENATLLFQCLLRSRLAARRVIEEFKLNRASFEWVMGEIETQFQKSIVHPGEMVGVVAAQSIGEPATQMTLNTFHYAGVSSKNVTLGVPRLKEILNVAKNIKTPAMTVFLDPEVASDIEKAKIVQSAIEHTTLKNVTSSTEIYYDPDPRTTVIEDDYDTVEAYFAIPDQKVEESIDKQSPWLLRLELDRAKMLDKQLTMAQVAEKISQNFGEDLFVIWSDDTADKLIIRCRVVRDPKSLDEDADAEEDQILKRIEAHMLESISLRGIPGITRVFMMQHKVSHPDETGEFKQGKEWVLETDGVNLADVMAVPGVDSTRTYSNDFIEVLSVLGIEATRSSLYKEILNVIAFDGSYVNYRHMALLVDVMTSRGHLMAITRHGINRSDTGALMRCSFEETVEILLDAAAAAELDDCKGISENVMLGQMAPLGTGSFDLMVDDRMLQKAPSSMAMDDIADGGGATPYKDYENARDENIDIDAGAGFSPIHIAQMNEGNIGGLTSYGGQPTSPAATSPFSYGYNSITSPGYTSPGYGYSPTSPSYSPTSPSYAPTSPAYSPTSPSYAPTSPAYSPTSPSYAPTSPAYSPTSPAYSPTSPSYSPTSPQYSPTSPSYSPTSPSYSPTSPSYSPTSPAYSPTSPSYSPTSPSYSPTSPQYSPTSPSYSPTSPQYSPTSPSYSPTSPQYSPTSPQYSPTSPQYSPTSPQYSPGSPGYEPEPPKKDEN
T1 sequence (Q5A8Y5 1-1234): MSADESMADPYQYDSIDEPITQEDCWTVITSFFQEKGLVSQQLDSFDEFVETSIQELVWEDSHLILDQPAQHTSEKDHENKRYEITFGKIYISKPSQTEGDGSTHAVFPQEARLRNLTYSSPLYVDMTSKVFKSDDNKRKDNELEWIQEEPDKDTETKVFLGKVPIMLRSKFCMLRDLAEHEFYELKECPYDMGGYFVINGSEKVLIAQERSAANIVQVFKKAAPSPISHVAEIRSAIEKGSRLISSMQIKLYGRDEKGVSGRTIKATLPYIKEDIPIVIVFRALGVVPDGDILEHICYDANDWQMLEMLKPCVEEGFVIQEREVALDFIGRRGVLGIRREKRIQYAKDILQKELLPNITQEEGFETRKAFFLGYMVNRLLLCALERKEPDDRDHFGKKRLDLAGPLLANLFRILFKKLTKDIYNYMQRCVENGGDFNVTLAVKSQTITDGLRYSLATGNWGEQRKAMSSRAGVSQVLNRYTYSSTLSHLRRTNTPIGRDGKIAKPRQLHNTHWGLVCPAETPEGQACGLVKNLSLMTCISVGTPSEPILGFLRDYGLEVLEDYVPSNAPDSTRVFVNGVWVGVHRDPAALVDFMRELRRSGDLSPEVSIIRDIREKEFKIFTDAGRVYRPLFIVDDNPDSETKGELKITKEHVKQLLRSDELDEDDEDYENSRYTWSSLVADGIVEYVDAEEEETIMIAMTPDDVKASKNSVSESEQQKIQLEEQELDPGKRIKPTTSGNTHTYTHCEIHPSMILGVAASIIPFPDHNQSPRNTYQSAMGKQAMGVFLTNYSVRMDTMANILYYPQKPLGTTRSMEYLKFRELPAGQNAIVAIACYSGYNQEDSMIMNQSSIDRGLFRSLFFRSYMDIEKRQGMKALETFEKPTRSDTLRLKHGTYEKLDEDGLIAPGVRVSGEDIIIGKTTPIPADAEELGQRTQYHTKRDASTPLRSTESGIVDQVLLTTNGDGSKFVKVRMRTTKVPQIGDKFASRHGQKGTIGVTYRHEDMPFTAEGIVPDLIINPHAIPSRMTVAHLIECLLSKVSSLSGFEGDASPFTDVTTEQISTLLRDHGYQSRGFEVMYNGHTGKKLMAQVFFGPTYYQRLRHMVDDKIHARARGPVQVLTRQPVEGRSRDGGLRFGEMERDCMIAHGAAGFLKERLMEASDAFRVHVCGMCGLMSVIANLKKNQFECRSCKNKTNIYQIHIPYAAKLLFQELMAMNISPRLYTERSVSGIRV

`Oc1ccc(N=Nc2cccc(C(F)(F)F)c2)cc1` [Compound 1, 4-[-2-[3-(trifluoromethyl)phenyl]diazenyl]-phenol]: the frequency of resistance with C. albicans [1] is < 1×10^-8. In addition, the results for the MIC against Fusarium culmorum and with fungal pathogens (setting [14]) were 6.25 µg/mL (≈ 23.5 µM) and 16.6 µg/mL (≈ 62.4 µM), respectively. In data set [2], the “fungal Pol II inhibition” value is listed as “potent activity”. For the same compound, the half-inhibitory concentration (IC50) in data set [2] is 10 µM; against human Pol II it was 43 µM. This compound yielded an inhibition at 20 µM in data set [2] (at 20 μM, screening of azo library) of 59%. The “exposure time after which no CFUs are recoverable” value in the data set on S. cerevisiae (S. cerevisiae cells) and with C. albicans [9] (C. albicans cells) was 5 min in each case. The “colony forming units after exposure” value with S. cerevisiae (about 10^6 S. cerevisiae cells, 25 μg/ml, 45 minutes) is given as “no detectable colony forming units”; with C. albicans [9] (about 10^6 C. albicans cells, 25 μg/ml, 45 minutes) it was “no detectable colony forming units”. The “mean and median survival times of treated mice” value in [3] (5 mg/kg/d to 100 mg/kg/d, q.d., d2-11) is recorded as “prolonged”. In data set [3] (mice with an established systemic Candida infection, oral), the “efficacy when administered orally” value was “efficacious”. Besides, the “recoverable colonies from the kidneys of treated animals” value in [3] (systemic candidiasis, mice) is “reduced”. The “effects in safety assessment targets” value in [4] is recorded as “negative”. Also, in data set [5], the “toxicity when administered orally” value was “nontoxic”. Further, in the data set on fungal pathogens, the “in vitro antifungal activity / spectrum” value is on record as “broad spectrum in vitro activity”. For the same compound, the “toxicity against monkey kidney cells” value with monkey kidney cells is “essentially non-toxic”. Besides, the “antifungal activity against resistant Candida strains” value in data set [6] is on record as “retains antifungal activity”. Also, in data set [7] (IP or PO for 10 days at 100 mg/kg/d), the compound related toxicity entry is recorded as “No signs of compound related toxicity”. The “activity against Trichophyton mentagrophytes” value in data set [8] was “active”. Also, the “efficacy against systemic candidiasis caused by fluconazole-resistant C. albicans” value in data set [10] was “effective”.

Take `Oc1ccc(C=Cc2cccc(C(F)(F)F)c2)cc1` [Compound 6, 4-[-2-[3-(trifluoromethyl)phenyl]ethenyl]phenol]: the “selectivity for Candida/fungal Pol II relative to human Pol II” value in [11] is given as “selective”; in data set [11] (setting [15]) it was “retained selective activity”. The IC50 in data set [2] turned out to be 70 µM; against human Pol II it was 230 µM. In data set [3] (IP q.d. d2-11, 100 mg/kg/d, immunocompetent mice), the mice survived was 30%. Moreover, the long term survival in data set [3] (IP q.d. d2-11, 200/mg/kg, immunocompetent mice) worked out at 90%. Further, the “efficacy against systemic candidiasis when administered orally” value in [3] (oral) is given as “effective”. Further, the “in vitro antifungal activity / spectrum” value in the data set on fungal pathogens is recorded as “broadly active against fungi”; with fungal pathogens (setting [15]), “had antifungal activity”. In the data set with fungal pathogens (setting [14]), the MIC turned out to be 8.2 µg/mL (≈ 31 µM). Also, in data set [7] (IP, q.d., d2-11, any of the treatment groups, immunocompetent mice), the compound-related toxicity result is on record as “no evidence of compound-related toxicity”. Also, the “efficacy against systemic candidiasis caused by fluconazole-resistant C. albicans” value in [10] is reported as “effective”.

With `CCCCN(CCO)c1ccc(N=Nc2c(Br)cc([N+](=O)[O-])cc2[N+](=O)[O-])c(C)c1` [Compound 2], the MIC is 80 µg/mL in the data set with wild type C. tropicalis (alone); 1 to 2 µg/mL in the data set with wild type C. tropicalis (with sub-MIC amphotericin B (1/3 of the MIC)); 80 µg/mL in the data set with C. albicans [13] (alone, ketoconazole resistant C. albicans); 80 µg/mL in the data set on C. albicans [13] (alone, wild type C. albicans); 1 to 2 µg/mL in the data set with C. albicans [13] (with sub-MIC amphotericin B (1/3 of the MIC), ketoconazole resistant C. albicans); 1 to 2 µg/mL in the data set on C. albicans [13] (with sub-MIC amphotericin B (1/3 of the MIC), wild type C. albicans). In addition, in the data set on fungal pathogens (in combination with amphotericin B, strain not named), the minimal inhibitory concentration (MIC) lay in the range of 1 to 2 µg/mL. Further, the “synergy with amphotericin B” value in data set [12] is on record as “not seen”; with C. albicans [13] it was “act synergistically”. Besides, in data set [2], the “fungal Pol II inhibition” value is given as “potent inhibitor”. Moreover, the “potency against Candida albicans in vitro” value in the data set on C. albicans [13] is reported as “relatively low potency”. Also, the “fungicidal or fungistatic character” value in the data set on fungal pathogens is recorded as “does not appear to be fungicidal; also recorded: fungistatic rather than fungicidal”.

For orientation: MIC means the lowest concentration found to suppress growth. As a reminder, the IC50 is the midpoint of a concentration-inhibition curve. By inhibition is commonly meant the change of the read-out against control, counted positive when it falls.
